Reference: publication PMC12078333, “Pharmacokinetic evaluation and bioavailability of KPT-335 (Verdinexor) in cats” (Frontiers in Veterinary Science, 2025)
Like-named read-outs stand apart in the source and are kept apart here.

Columns and labels:
pKa (unpublished data) = assay type: physicochemical; conditions: weak base
[1] = cited from earlier work
[2] = dogs, orally 1.25 mg/kg BW (n = 4) ref 13
[3] = dogs, orally 1.5 mg/kg BW (n = 4) ref 13
[4] = healthy dogs, phase I study, 1.5 mg/kg BW ref 9

For `O=C(/C=C\n1cnc(-c2cc(C(F)(F)F)cc(C(F)(F)F)c2)n1)NNc1ccccn1` [KPT-335], which pKa (pKa (unpublished data)) is on record?
The pKa was 10.6.

What about the AUClast ([1]; dogs, 1.5 mg/kg BW ref 9, 13) of the same compound?
The AUClast was 1800–2,300 h·ng/mL.

What about the Cmax ([1]; dogs, 1.5 mg/kg BW ref 9, 13) of the same compound?
The Cmax was 250 to 310 ng/mL.

What about the half-life ([1]; dogs, 1.5 mg/kg BW ref 9, 13) of the same compound?
Its half-life is “approximately 4 h”.

What about the “mean AUC” value [1, 2] of the same compound?
Its value is 1576.6 ng·h/mL.

And the “mean Cmax” value [1, 2]?
The value was 244.8 ng/mL.

What about the “mean AUC” value [1, 3] of the same compound?
The value was 2346.8 ng·h/mL.

What about the “mean Cmax” value [1, 3] of the same compound?
The value was 312 ng/mL.

What about the AUClast [1, 4] of the same compound?
Its AUClast is 1760 ± 223 ng·h/mL.

And the Cmax [1, 4]?
The Cmax was 253 ± 88.3 ng/mL.

What about the T1/2 [1, 4] of the same compound?
Its T1/2 is 3.88 ± 2.71 h.
